From patent US10973763B2, “Inhalable pharmaceutical compositions” (Berg LLC, priority 2011, dated 2021)
Several values for one entry are separate records, joined by “and”; a condition that tells them apart may be missing. Equal entries are not always repeated.

Legend:
[1] = CoQ10 level in lung tissue after nose-only aerosol dosing; format: in vivo, mice
Description: (§1) Animals were caged in groups of 4 and maintained on a normal rodent chow diet with free access to water. Prior to dosing, CD-1® IGS ICR mice (Charles River Laboratories International, Inc., Wilmington, Mass., USA) were individually acclimatized for approximately 10 minutes per day for 3 days into restraint tubes, restricted by an anterior nose insert and a posterior holder. The dosing apparatus was placed inside a fume hood to collect escaping aerosol containing drug. To avoid influence from the airflow provided by the fume hood, an erlenmeyer container was placed at the end of the tubing system as a buffer. The airflow rate was set to 1 L/min to ensure proper drug aerosolization into the nose-only chamber (internal volume: 230 mL; diameter: 3.8 cm; length: 20.3 cm) using an Aeroneb Pro® vibrating-mesh nebulizer (Aerogen, Galway, Ireland). Following preparation, all formulations (saline control, DMPC, DPPC, and DSPC) were dosed for 15 minutes to mice weighing from 23 to 33 g each, at time of dosing. Each single-dose studied group consisted of thirty-six male animals. At each time point (0.5, 1, 3, 8, 24, and 48 hours after the end of the aerosolization event) six animals randomly selected from different dosing events of the same formulation were sacrificed by narcosis with carbon dioxide. As part of the collection process, blood was withdrawn by cardiac puncture, lungs were harvested, and a nasal wash was performed. […]
For each experiment, CoQ10 levels were determined after liquid extraction using liquid chromatography coupled with tandem mass spectrometry (LC-MS/MS). […]
Samples were tested for normality using the Shapiro Wilk test (p<0.05) and outliers were excluded from data analysis. Pharmacokinetic parameters were determined using Microsoft Office Excel 2007 software (Redmond, Wash.) with the add-in program PKSolver. […] At each time point, lung tissue samples were analyzed for statistical differences among different groups with One-Way ANOVA for significance (p<0.05). […]

[2] = system: IL-12; assay: Inflammatory response: BAL supernatant ELISA for IL-12; format: in vivo, mice; conditions: pulmonary administration
Description: The inflammatory response to the administration of hydrophobic bioactive agents (e.g., as discussed in connection with Example 1-3 above) was measured. Surgery is performed on sacrificed mice to expose the pleural cavity and trachea at the throat. […] An aliquot (about 0.75 mL) of phosphate buffered saline is instilled through the cannula into the lungs and removed to wash the bronchial and alveolar surfaces. This process is repeated for a total of three washes. The phosphate buffered saline containing cells is placed into centrifuge vials and centrifuged at about 3000 rpm (MiniSpin Plus, Eppendorf International, Hamburg, Del.). The supernatant is removed leaving the collected cells in the pellet. The supernatant from the BAL (Bronchoalveolar Lavage) is analyzed by enzyme-linked immunosorbent assay (ELISA) for IL-12 elevation (n=2 per sample tested).

[3] = system: mice; assay: Survival and health of mice after nebulization event; format: in vivo; conditions: 48 hours after the end of the nebulization event
Description: as §1, with “dioxide.” for “dioxide. As part of the collection process, blood was withdrawn by cardiac puncture, lungs were harvested, and a nasal wash was performed.”

[4] = Particle size distribution by laser diffraction (LD); format: physicochemical; conditions: bulk CoQ10 powder
Description: Bulk CoQ10 powder was dispersed in 20% (v/v) 1,3-propanediol in deionized water for analysis of particle size distribution. This dispersed sample was then added to a small cell apparatus in a Malvern Mastersizer S® instrument (Malvern Instruments, Worcestershire, UK) equipped with a 300 mm lens until 5-10% obscuration was attained. The internal phase and dispersant refractive indexes were 1.45 and 1.33, respectively.
Particle size distribution testing of the dispersed formulations was performed with LD using a wet sample dispersion unit stirring at 1,000 rpm coupled to a Malvern Spraytec® (Malvern Instruments, Worcestershire, UK) equipped with a 300 mm lens. The dispersed formulations were added to distilled water (dispersant) until approximately 5% laser obscuration was attained. The internal phase and dispersant refractive indexes were set as 1.45 and 1.33, respectively. […] Span is a measurement of particle size distribution calculated as [Dv(90)−[…]]/Dv(50)]. […]
Particle size distribution testing of the dispersed formulations was performed with LD using a wet sample dispersion unit stirring at 1,000 rpm coupled to a Malvern Spraytec® (Malvern Instruments, Worcestershire, UK) equipped with a 300 mm lens. […] Span is the measurement of particle size distribution calculated as [Dv(90)−Dv(10)]/Dv(50)]. […]

[5] = Drug loading suitable for continuous nebulization (Example 5); format: physicochemical; conditions: 15-minute nebulization, Aeroneb Pro, DMPC 2.5% w/w
Description: Formulations were prepared based upon the general methods discussed in connection with Examples 1 and 2. For this study, specific dispersions were prepared with 50 microfluidization discrete passes using 2.5% w/w of dimyristoyl phosphatidylcholine (DMPC) and 7.5%, 7.0%, 6.0%, 5.0%, or 4.0% w/w of CoQ10. The dispersions were then aerosolized within 24 hour using an Aeroneb Pro® nebulizer for 15 minute aerosolization event. The aerosolization profile was monitored via analysis of Total Aerosol Output (TAO) and using laser diffraction with a Malvern Spraytec® coupled with an inhalation cell as described above.

[6] = previous studies, same nebulizer

With `COC1=C(OC)C(=O)C(C/C=C(\C)CC/C=C(\C)CC/C=C(\C)CC/C=C(\C)CC/C=C(\C)CC/C=C(\C)CC/C=C(\C)CC/C=C(\C)CC/C=C(\C)CCC=C(C)C)=C(C)C1=O` [CoQ10, Coenzyme Q10] the “time CoQ10 stays in the lungs at relatively high concentrations” value ([1]; after 15-minute aerosol dosing) was “up to 48 hours”, the “lung Cmax relative to cyclosporine A dispersions” value [1, 6] was ≤ 75 fold and the “lung Cmax relative to itraconazole dispersions” value [1, 6] was ≤ 165 fold. The “IL-12 levels in BAL supernatant” value ([2]; ELISA) was “not associated with a rise in IL-12 levels”, the lung inflammation [2] was “does not cause lung inflammation” and the “survival and health of mice” value [3] was “all mice were alive and presenting healthy signs”. For the same compound, the “Dv(50) / particle size” value [4] was 30 μm and 29.87 μm and the “maximum nominal drug loading without intermittent mist” value [5] was 4 % w/w.
